The source of these data is patent US20240366535A1, “FORMULATION WITH IMPROVED BIOAVAILABILITY” (MERRY LIFE BIOMEDICAL COMPANY, LTD., priority 2023, published 2024).

Data set [1] is described as follows: Dissolution test in medium simulating gastric juice (0.1N HCl), 30 min. Type of data set: physicochemical. Conditions: Medium 0.1N HCl. The method, then: (§1) Dissolution Test in 0.1 HCl and pH 6.8 Phosphate Buffer, 30 Min
(§2) The dissolution of TML-6 (API alone) and TML-6 formulations (E01 to E12) were measured in mediums simulating gastric juice for 30 mins, and the results are as shown in Table 5 and 6. The dissolution of TML-6 (API alone) and TML-6 formulations (E13 to E17) were measured in mediums simulating intestinal juice for 30 mins, and the results are as shown in Table 6.

The nature of data set [2]: Dissolution test in medium simulating intestinal juice (pH 6.8 phosphate buffer), 30 min. To be noted: Medium pH 6.8 Phosphate Buffer. Type of data set: physicochemical. The method, then:
as §1, §2

The nature of data set [3]: Pharmacokinetics (PK) studies in rats, single oral dose. It counts as in vivo. Conditions: male, Sprague-Dawley, TML-6 in rat plasma, 25.0 mg/kg single dose, 0.5% MC suspension. The method, then: The objective of this study is to obtain the pharmacokinetic profiles of TML-6 API (unformulated, crystalline), TML-6 formulation E02 (crystalline) and TML-6 formulations E10, E12 and E13 (amorphous) though oral (PO) doses when administrated to 6-8 week old male Sprague-Dawley rats (BioLASCO Taiwan Co. Ltd). A study design of five doses on rats. Animals received a single dose of TML-6 API, TML-6 formulations E02, E10, E12 and E13 at 25 mg/kg via oral gavage.
Dosing Solution Preparation: The TML-6 API, E02, E10, E12 and E13 oral formulations were prepared by suspending these TML6 formulated powder in the aqueous vehicle composed of 0.5% methylcellulose (MC) to the concentration of 2.5 mg/mL TML-6, respectively.
Plasma Sample Preparation and Bioanalysis Serial blood samples were collected from all animals through the tail veins. Approximately 0.2 mL blood samples were collected at each following time points: predose and 0.083, 0.25, 0.5, 1, 2, 4, 6, 8, 10 and 24 hours post-dose. Separation of plasma was prepared by centrifugation (1,000×g for 15 minutes at 4° C.) after blood sampling. Concentrations of TML-6 in rat plasma were determined by liquid chromatography-tandem mass spectrometry (LC-MS/MS), as shown in FIGS. 6 and 7. The lower limit of quantification (LLOQ) was 0.1 ng/mL. […]

Each structure is given as a SMILES string.

For `CCN(CC)C(=O)CC(C)(C(=O)/C=C/c1ccc(OC)c(OC)c1)C(=O)/C=C/c1ccc(OC)c(OC)c1` [API alone], in data set [1], the “Dissolution within 30 min” value is recorded as 0.1%. In addition, in data set [2], the “Dissolution within 30 mins” value is recorded as 0.06%. In data set [3], this compound showed an AUC(0-inf) of 73.6 ng·h/mL and a Cmax of 25.3 ng/mL.

One may read the AUC(0-inf) as the area under the concentration-time curve extrapolated to infinity. Broadly, the Cmax is the peak of the concentration-time curve.
